Where two headings read alike, the source gives them in different places.
How the values were obtained:
P. aeruginosa PAE 1001 = test: In vitro antibacterial activity (MIC), P. aeruginosa; type: cell-based; conditions: Pseudomonas aeruginosa, PAE1001
From the text: (§1) The in vitro activity of compounds described herein may be assessed by standard testing procedures such as the determination of minimum inhibitory concentration (MIC) as described in Approved Standard. Methods for Dilution Antimicrobial Susceptibility Tests for Bacteria that Grow Aerobically, 3rd ed., 1993, published by the National Committee for Clinical Laboratory standards, Villanova, Pennsylvania, USA. Low MIC values indicate high antibacterial activity, while high MIC values reveal a reduced antibacterial activity (with higher drug concentration required for pathogen eradication in the latter instance). Generally, MIC values of about ≤4-8 μg/mL indicate a therapeutic (i.e. suitable for therapy) potency for antibacterial drugs, while MIC values of ≥16 μg/mL indicate a lack of therapeutically useful activity for a test compound.

A. baumannii MABA 0001 = test: In vitro antibacterial activity (MIC), A. baumannii; type: cell-based; conditions: Acinetobacter baumannii, MABA0001
From the text: as §1

K. pneumoniae ATCC10031 = test: In vitro antibacterial activity (MIC), K. pneumoniae; type: cell-based; conditions: Klebsiella pneumoniae
From the text: as §1

E. coli MECO 002 = test: In vitro antibacterial activity (MIC), E. coli; type: cell-based; conditions: Escherichia coli, MECO002
From the text: as §1

[1] = Pharmacokinetic study in rat (iv or oral gavage); type: in vivo, SD rats; conditions: SD rat; for AUC compared with that of Example 5, in words: oral
From the text: To further elucidate therapeutic potential of drug compounds, pharmacokinetic (PK) data is used to establish the key parameters predictive of the therapy outcome, such as area under the curve (AUC) for a plot monitoring the change in the systemic drug concentration over time. Thus, a higher AUC value indicates a greater exposure to the drug, commonly associated with a greater therapeutic potential due to a higher amount of drug available to combat the infection in a mammal. In contrast, a lower AUC value indicates a reduced exposure to the drug under study, resulting in a reduced amount of antibiotic available to combat bacterial infestations. To that end, the compounds described herein were tested in a rat PK model of oral administration performed analogously to methods described in the monograph Current Protocols in Pharmacology, 2005, 7.1.1-7.1.26, John Wiley & Sons, Inc.
All the compounds were administered to SD rats (The rats were randomly divided into groups with 3 rats in each group) by intravenous (iv) or oral gavage. Since the prodrugs are expected to convert to the parent molecule in vivo, only the parent compound (the compound of Example 5) was tested for all samples. […] This low bioavailability as well as low exposure (AUC) and C max make it inappropriate for development as oral drug. […] Because the prodrugs usually have larger molecular weight due to the introduction of prodrug substructures, the AUC is corrected by dose and molecular weight (MW) to give AUC per mole, to compare the efficiency among the prodrugs.

[2] = test system: Pseudomonas aeruginosa WPAE 1004; test: Pseudomonas aeruginosa mouse lung infection model; type: in vivo; conditions: ICR mouse, po 10 mg/kg once daily; for WPAE 1004, Lg (CFU/lung) 24 h: oral suspension; for Δ 24 h (Control-Theray), log reduction of CFU in lung: vs untreated control
Description: To establish the efficacy of the compounds described herein in vivo, a Pseudomonas aeruginosa mouse lung infection model was performed by administering test compounds analogously to the method described in Andes et al. in Antimicrobial Agents and Chemotherapy, 2002, 46(11), 3484-3489. In this model, a greater reduction in the bacterial colony-forming units (CFU) indicates more beneficial therapeutic effect (more bacterial eradication), while a lower CFU reduction indicates a lower effect (less bacterial eradication). The in vivo antibacterial effect is also referred to as “efficacy”, in contrast to the term “potency,” which is commonly used for in vitro activity (expressed as MIC).
In the Pseudomonas aeruginosa ICR mouse (The mice were randomly divided into groups with 6 mice in each group) lung infection, reference Example 5 was administered orally at 10 mg/kg once daily. […] As a prodrug for oral administration, the compound of Example 2 and 8 were also given by oral gavage at 10 mg/kg once daily. […] The data is strongly supportive of the prodrug of Example 2 and 8 being converted to reference compound of Example 5 after oral administration to exert the antibacterial activity. The data also supports a high conversion rate.

[3] = Lung vs. plasma distribution study in mice; type: in vivo; conditions: Balb/C mouse
[4] = test system: Gram-negative bacteria, including Pseudomonas aeruginosa, Acinetobacter baumannii, Escherichia coli, and Klebsiella pneumoniae; test: In vitro antibacterial activity (MIC), summary over Gram-negative bacteria; type: cell-based; conditions: for in vitro antibacterial activity in words: prodrugs of Example 5, Table 1 data
From the text: as §1

[5] = in vivo, iv 5 mg/kg, parent compound (Example 5) measured

SMILES	MIC (P. aeruginosa PAE 1001) [µg/mL]	MIC (A. baumannii MABA 0001) [µg/mL]	MIC (K. pneumoniae ATCC10031) [µg/mL]	MIC (E. coli MECO 002) [µg/mL]	AUC compared with that of Example 5, in words [1]	WPAE 1004, Lg (CFU/lung) 24 h [2]	Δ 24 h (Control-Theray), log reduction of CFU in lung [2]	AUClast, lung ([3]; Example 2 10 mg/kg po, levels for Example 2) [ng·h/g]	AUClast, lung ([3]; Example 2 10 mg/kg po, levels for Example 5) [ng·h/g]	in vitro antibacterial activity in words [4]	AUC [1, 5] [ng·h/mL]	Cmax [1, 5] [ng/mL]	AUClast, lung ([3]; Example 5 10 mg/kg iv, levels for Example 5) [ng·h/g]	Kp ([3]; lung/plasma, Example 5 10 mg/kg iv, levels for Example 5, read-out: AUC ratio (lung/plasma))	half-life ([3]; lung, Example 5 10 mg/kg iv, levels for Example 5, read-out: t1/2, lung (converted)) [h]	AUC(0-t) ([3]; plasma, Example 5 10 mg/kg iv, levels for Example 5, read-out: AUClast, plasma) [ng·h/mL]	half-life ([3]; plasma, Example 5 10 mg/kg iv, levels for Example 5, read-out: t1/2, plasma (converted)) [h]	MIC range against Gram-negative bacteria ([4]; range over the four strains of Table 1) [µg/mL]
CC(=O)OC[C@H](COc1cccc2c1B(O)O[C@@H]2CN)OC(C)=O.Cl [Example 1, (2S)-3-acetoxy-1-{[(3S)-3-(aminomethyl)-1-hydroxy-1,3-dihydrobenzo[2,1-c][1,2]oxaborol-7-yl]oxy}propan-2-yl acetate hydrochloride]	> 32	> 32	> 32	> 32	significantly higher	–	–	–	–	–	–	–	–	–	–	–	–	–
CC(C)C(=O)OC[C@H](COc1cccc2c1B(O)O[C@@H]2CN)OC(=O)C(C)C.Cl [Example 2, (2S)-1-{[(3S)-3-(aminomethyl)-1-hydroxy-1,3-dihydrobenzo[2,1-c][1,2]oxaborol-7-yl]oxy}-3-[(2-methylpropanoyl)oxy]propan-2-yl 2-methylpropanoate hydrochloride]	> 32	> 32	> 32	> 32	significantly higher	7.50 ± 0.73 Lg (CFU/lung)	1.77 Lg (CFU/lung)	968	23589	inactive	–	–	–	–	–	–	–	–
CC(C)(C)C(=O)OC[C@H](COc1cccc2c1B(O)O[C@@H]2CN)OC(=O)C(C)(C)C.Cl [Example 3, (2S)-3-[(2,2-dimethylpropanoyl)oxy]-1-{[(3S)-3-(aminomethyl)-1-hydroxy-1,3-dihydrobenzo[2,1-c][1,2]oxaborol-7-yl]oxy}propan-2-yl 2,2-dimethylpropanoate hydrochloride]	> 32	> 32	> 32	> 32	significantly higher	–	–	–	–	inactive	–	–	–	–	–	–	–	–
CC(C)C(=O)OC[C@@H]1COc2cccc3c2B(O1)O[C@@H]3CN.Cl [Example 4, [(2S,6S)-2-(aminomethyl)-4-bora-3,5,8-trioxatricyclo[7.3.1.04,13]trideca-1(12),9(13),10-trien-6-yl]methyl 2-methylpropanoate hydrogen chloride]	> 32	> 32	> 32	> 32	significantly higher	–	–	–	–	inactive	–	–	–	–	–	–	–	–
Cl.NC[C@H]1OB2O[C@H](CO)COC3C=CC=C1C23 (stereo partly drawn) [Example 5, [(2S,6R)-2-(aminomethyl)-4-bora-3,5,8-trioxatricyclo[7.3.1.04,13]trideca-1(12),10-dien-6-yl]methanol hydrochloride, reference compound]	2	2	4	2	–	8.56 ± 0.49 Lg (CFU/lung)	0.53 Lg (CFU/lung)	–	–	–	5660	6780	12822	2.39	1.46	5360	1.87	2 to 4
CCC(=O)OC[C@H](COc1cccc2c1B(O)O[C@@H]2CN)OC(=O)CC.Cl [Example 6]	–	–	–	–	significantly higher	–	–	–	–	–	–	–	–	–	–	–	–	–
CC(=O)OC[C@@H]1COc2cccc3c2B(O1)O[C@@H]3CN.Cl [Example 7, [(2S,6S)-2-(aminomethyl)-4-bora-3,5,8-trioxatricyclo[7.3.1.04,13]trideca-1(12),9(13),10-trien-6-yl]methyl acetate hydrogen chloride]	–	–	–	–	significantly higher	–	–	–	–	–	–	–	–	–	–	–	–	–
CCC(=O)OC[C@@H]1COc2cccc3c2B(O1)O[C@@H]3CN.Cl [Example 8, [(2S,6S)-2-(aminomethyl)-4-bora-3,5,8-trioxatricyclo[7.3.1.04,13]trideca-1(12),9(13),10-trien-6-yl]methyl propanoate hydrogen chloride]	> 32	> 32	> 32	> 32	significantly higher	8.45 ± 0.64 Lg (CFU/lung)	0.82 Lg (CFU/lung)	–	–	inactive	–	–	–	–	–	–	–	–

From patent US20240279247A1, “PRODRUGS OF BORON COMPOUNDS AND THEIR USE IN TREATING BACTERIAL INFECTIONS” (priority 2022, published 2024)
